As usually defined, the melting point is the temperature of the solid-liquid transition.

The values that follow come from patent US8841330B2, “Omega-carboxyaryl substituted diphenyl ureas as raf kinase inhibitors” (Bayer Healthcare LLC, priority 2000, dated 2014).

Each structure is given as a SMILES string.

As to `COC(=O)c1ccc(Oc2ccc(NC(=O)Nc3ccc(Cl)c(C(F)(F)F)c3)cc2)cn1` [Entry 55, N-(4-chloro-3-(trifluoromethyl)phenyl)-N′-(4-(2-(methoxycarbonyl)-5-pyridyloxy)phenyl)urea], the melting point was 228 to 230 °C.

Take `CNC(=O)c1cc(Oc2ccc(NC(=O)Nc3ccc(Oc4ccnc(C(=O)NC)c4)cc3)cc2)ccn1` [Entry 103, bis(4-(2-(N-methylcarbamoyl)-4-pyridyloxy)phenyl)urea]: the melting point fell in the range of 125 to 130 °C.
